From US12479847B2 (DANA-FARBER CANCER INSTITUTE, INC., priority 2019, dated 2025)
Like-named read-outs stand apart in the source and are kept apart here.

Key:
Assay in all cases: KINOMEscan (ScanMAX) kinase profiling
Format in all cases: binding
[1] = biological target: T1, panel of 468 kinases (Homo sapiens, UniProt P54764); details: EPHA4; 1 μM; read-out: % control
T1 construct: purchased KINOMEscan (ScanMAX) service

[2] = biological target: T2, panel of 468 kinases (Homo sapiens, UniProt Q9H2X6); details: HIPK2; 1 μM; read-out: % control
T2 construct: purchased KINOMEscan (ScanMAX) service

[3] = biological target: T3, panel of 468 kinases (Homo sapiens, UniProt P10721); details: 1 μM, read-out: % control
T3 construct: purchased KINOMEscan (ScanMAX) service

[4] = biological target: T4, panel of 468 kinases (Homo sapiens, UniProt Q86Z02); details: HIPK1; 1 μM; read-out: % control
T4 construct: purchased KINOMEscan (ScanMAX) service

[5] = biological target: T5, panel of 468 kinases (Homo sapiens, UniProt P11309); details: PIM1; 1 μM; read-out: % control
T5 construct: purchased KINOMEscan (ScanMAX) service

[6] = biological target: T6, panel of 468 kinases (Homo sapiens, UniProt P12931); details: SRC; 1 μM; read-out: % control
T6 construct: purchased KINOMEscan (ScanMAX) service

[7] = biological target: T7, panel of 468 kinases (Homo sapiens, UniProt Q9UM73); details: ALK; 1 μM; read-out: % control
T7 construct: purchased KINOMEscan (ScanMAX) service

[8] = biological target: T8, panel of 468 kinases (Plasmodium falciparum, UniProt P61075); details: PFPK5(P.falciparum); 1 μM; read-out: % control
T8 construct: purchased KINOMEscan (ScanMAX) service

[9] = biological target: T9, panel of 468 kinases (Homo sapiens, UniProt O94921); details: PFTK1; 1 μM; read-out: % control
T9 construct: purchased KINOMEscan (ScanMAX) service

[10] = biological target: T10, panel of 468 kinases (Homo sapiens, UniProt Q8NEV4); details: MYO3A; 1 μM; read-out: % control
T10 construct: purchased KINOMEscan (ScanMAX) service

[11] = biological target: T11, panel of 468 kinases (Homo sapiens, UniProt P68400); details: CSNK2A1; 1 μM; read-out: % control
T11 construct: purchased KINOMEscan (ScanMAX) service

[12] = biological target: T12, panel of 468 kinases (Homo sapiens, UniProt P14616); details: INSRR; 1 μM; read-out: % control
T12 construct: purchased KINOMEscan (ScanMAX) service

[13] = biological target: T13, panel of 468 kinases (Homo sapiens, UniProt Q06187); details: BTK; 1 μM; read-out: % control
T13 construct: purchased KINOMEscan (ScanMAX) service

[14] = biological target: T14, panel of 468 kinases (Homo sapiens, UniProt Q13555); details: CAMK2G; 1 μM; read-out: % control
T14 construct: purchased KINOMEscan (ScanMAX) service

[15] = biological target: T15, panel of 468 kinases (Homo sapiens, UniProt Q9NY57); details: YANK2; 1 μM; read-out: % control
T15 construct: purchased KINOMEscan (ScanMAX) service

[16] = biological target: T16, panel of 468 kinases (Homo sapiens, UniProt P00533, L858R/T790M); details: EGFR(L858R,T790M); 1 μM; read-out: % control
T16 construct: purchased KINOMEscan (ScanMAX) service

[17] = biological target: T17, panel of 468 kinases (Homo sapiens, UniProt O00506); details: YSK1; 1 μM; read-out: % control
T17 construct: purchased KINOMEscan (ScanMAX) service

[18] = biological target: T18, panel of 468 kinases (Homo sapiens, UniProt Q9Y6M4); details: CSNK1G3; 1 μM; read-out: % control
T18 construct: purchased KINOMEscan (ScanMAX) service

[19] = biological target: T19, panel of 468 kinases (Homo sapiens, UniProt P11802); details: 1 μM, read-out: % control
T19 construct: purchased KINOMEscan (ScanMAX) service

[20] = biological target: T20, panel of 468 kinases (Homo sapiens, UniProt P41240); details: CSK; 1 μM; read-out: % control
T20 construct: purchased KINOMEscan (ScanMAX) service

[21] = biological target: T21, panel of 468 kinases (Homo sapiens, UniProt P53667); details: LIMK1; 1 μM; read-out: % control
T21 construct: purchased KINOMEscan (ScanMAX) service

[22] = biological target: T22, panel of 468 kinases (Homo sapiens, UniProt P31751); details: AKT2; 1 μM; read-out: % control
T22 construct: purchased KINOMEscan (ScanMAX) service

T8 sequence (P61075 whole entry): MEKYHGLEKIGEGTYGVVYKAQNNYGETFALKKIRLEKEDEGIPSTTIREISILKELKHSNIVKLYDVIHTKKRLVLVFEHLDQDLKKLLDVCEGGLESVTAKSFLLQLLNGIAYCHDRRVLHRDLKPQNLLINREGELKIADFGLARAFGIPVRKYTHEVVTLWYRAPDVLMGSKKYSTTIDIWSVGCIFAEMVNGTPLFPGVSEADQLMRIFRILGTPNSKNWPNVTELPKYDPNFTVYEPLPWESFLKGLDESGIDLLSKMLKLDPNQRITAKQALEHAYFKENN
T13 sequence (Q06187 whole entry): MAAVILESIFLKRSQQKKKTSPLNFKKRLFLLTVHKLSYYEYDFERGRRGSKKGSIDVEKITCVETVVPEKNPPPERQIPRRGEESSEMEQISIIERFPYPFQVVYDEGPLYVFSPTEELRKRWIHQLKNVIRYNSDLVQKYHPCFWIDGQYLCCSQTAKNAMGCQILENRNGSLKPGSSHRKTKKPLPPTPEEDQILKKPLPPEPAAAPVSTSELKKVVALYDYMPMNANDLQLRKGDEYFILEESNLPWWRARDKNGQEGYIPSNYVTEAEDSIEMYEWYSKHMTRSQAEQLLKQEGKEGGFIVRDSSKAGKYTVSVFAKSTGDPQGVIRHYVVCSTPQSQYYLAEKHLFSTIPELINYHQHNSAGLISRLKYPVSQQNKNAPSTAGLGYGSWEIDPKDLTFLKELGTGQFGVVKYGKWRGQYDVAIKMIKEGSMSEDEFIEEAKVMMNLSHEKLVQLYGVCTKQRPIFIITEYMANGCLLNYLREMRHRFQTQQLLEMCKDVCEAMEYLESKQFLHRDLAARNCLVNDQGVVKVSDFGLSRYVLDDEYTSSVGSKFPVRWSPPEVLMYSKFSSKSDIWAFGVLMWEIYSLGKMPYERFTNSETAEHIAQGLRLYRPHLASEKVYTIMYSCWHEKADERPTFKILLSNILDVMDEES
T19 sequence (P11802 whole entry): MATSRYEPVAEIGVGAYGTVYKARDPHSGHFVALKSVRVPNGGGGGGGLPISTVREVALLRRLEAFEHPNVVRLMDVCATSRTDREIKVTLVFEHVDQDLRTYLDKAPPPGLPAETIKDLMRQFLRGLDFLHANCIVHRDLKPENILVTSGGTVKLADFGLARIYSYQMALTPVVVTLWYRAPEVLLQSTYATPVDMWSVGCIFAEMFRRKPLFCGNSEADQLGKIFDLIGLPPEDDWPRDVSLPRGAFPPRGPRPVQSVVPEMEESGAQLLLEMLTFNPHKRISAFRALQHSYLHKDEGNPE
T5 sequence (P11309 whole entry): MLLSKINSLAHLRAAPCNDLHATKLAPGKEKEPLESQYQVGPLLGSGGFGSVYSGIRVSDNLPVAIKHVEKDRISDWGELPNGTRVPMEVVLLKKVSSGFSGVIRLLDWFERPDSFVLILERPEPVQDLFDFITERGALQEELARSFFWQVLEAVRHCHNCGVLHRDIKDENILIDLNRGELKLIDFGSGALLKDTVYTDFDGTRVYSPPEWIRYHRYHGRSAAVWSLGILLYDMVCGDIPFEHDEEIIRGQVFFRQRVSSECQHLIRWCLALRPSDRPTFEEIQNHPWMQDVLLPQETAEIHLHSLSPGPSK
T10 sequence (Q8NEV4 whole entry): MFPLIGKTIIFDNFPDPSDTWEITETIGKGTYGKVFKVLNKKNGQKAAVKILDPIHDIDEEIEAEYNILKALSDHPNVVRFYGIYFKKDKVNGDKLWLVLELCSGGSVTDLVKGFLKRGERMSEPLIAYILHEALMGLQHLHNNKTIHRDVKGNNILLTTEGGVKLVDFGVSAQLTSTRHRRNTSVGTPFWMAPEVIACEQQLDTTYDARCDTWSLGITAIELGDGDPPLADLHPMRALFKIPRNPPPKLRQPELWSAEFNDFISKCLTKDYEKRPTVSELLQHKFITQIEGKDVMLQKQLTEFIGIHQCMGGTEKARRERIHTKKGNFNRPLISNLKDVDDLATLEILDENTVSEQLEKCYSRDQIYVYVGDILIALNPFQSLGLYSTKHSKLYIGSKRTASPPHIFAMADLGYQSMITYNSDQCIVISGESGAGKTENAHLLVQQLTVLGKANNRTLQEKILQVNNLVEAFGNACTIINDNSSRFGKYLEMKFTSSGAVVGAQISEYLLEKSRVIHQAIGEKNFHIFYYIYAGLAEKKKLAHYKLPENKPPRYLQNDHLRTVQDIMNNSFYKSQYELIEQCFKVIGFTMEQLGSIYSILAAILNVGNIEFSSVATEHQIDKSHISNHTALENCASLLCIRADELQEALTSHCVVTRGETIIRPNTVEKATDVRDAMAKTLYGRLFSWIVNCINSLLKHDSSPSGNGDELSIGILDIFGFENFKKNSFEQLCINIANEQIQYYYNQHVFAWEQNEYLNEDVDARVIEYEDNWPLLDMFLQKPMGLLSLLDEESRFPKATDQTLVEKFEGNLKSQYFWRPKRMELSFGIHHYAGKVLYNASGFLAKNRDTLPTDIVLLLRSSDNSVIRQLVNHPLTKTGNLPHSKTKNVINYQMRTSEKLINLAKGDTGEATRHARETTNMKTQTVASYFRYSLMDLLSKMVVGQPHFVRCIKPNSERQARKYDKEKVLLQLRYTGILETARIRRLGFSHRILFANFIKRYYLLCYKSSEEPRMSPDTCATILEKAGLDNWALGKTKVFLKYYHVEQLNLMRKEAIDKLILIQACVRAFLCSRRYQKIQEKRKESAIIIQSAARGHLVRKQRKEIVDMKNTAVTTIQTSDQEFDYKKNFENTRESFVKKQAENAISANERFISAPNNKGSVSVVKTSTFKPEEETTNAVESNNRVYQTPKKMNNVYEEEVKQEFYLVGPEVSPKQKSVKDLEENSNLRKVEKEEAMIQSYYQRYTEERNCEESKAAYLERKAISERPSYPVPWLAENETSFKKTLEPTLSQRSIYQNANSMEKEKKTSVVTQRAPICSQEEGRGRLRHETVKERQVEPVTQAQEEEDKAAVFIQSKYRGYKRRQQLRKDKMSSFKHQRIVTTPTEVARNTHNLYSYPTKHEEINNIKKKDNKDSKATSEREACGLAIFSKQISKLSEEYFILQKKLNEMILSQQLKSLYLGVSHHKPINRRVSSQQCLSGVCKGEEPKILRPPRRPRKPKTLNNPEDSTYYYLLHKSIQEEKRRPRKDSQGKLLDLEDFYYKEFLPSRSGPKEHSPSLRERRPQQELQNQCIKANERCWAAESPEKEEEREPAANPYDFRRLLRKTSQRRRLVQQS
T21 sequence (P53667 whole entry): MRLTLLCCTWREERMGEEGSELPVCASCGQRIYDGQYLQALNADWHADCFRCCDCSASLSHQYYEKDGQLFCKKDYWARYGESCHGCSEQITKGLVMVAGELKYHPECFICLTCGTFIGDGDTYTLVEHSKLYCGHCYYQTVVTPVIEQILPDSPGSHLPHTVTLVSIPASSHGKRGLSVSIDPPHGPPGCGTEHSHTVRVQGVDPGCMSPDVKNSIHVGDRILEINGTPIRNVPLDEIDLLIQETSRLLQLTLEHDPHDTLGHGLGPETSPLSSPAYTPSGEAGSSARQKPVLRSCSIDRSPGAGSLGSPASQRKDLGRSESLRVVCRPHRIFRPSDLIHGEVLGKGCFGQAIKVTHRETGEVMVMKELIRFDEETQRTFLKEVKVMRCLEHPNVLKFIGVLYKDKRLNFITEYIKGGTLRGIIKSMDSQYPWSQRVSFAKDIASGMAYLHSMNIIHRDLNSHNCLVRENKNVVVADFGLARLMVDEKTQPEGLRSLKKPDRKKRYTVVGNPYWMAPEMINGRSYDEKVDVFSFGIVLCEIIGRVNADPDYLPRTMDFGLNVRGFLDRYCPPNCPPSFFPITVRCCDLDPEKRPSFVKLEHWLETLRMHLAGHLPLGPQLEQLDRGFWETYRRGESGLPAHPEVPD
T15 sequence (Q9NY57 whole entry): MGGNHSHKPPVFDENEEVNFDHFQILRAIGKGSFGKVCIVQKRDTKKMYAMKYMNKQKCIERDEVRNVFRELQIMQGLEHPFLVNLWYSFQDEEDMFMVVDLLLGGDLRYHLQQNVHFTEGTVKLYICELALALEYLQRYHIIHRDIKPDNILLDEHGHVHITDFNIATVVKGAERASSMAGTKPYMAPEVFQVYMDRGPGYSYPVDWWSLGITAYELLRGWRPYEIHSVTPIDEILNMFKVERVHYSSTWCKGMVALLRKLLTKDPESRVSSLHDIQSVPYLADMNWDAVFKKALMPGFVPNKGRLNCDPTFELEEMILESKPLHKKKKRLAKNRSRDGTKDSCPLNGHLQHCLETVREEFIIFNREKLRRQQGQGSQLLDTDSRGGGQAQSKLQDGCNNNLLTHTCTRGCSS
T6 sequence (P12931 whole entry): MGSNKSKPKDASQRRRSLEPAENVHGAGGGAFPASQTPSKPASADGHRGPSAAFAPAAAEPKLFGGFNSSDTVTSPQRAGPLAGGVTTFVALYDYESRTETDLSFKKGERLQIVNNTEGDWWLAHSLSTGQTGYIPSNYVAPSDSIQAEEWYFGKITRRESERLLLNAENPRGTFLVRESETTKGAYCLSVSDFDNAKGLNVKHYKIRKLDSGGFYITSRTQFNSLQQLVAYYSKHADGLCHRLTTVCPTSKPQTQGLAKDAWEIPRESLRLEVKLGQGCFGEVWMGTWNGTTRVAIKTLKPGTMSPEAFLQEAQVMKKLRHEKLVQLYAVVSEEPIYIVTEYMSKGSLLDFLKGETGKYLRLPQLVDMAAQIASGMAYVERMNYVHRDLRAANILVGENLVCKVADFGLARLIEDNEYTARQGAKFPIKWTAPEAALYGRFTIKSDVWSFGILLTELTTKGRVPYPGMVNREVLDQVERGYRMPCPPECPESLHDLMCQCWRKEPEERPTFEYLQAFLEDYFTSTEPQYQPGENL

`CNc1nc(Nc2ccc(S(=O)(=O)N3CCC(N4CCOCC4)CC3)cc2OC)nc2[nH]cc(Cl)c12` [Compound 12, 5-chloro-N2-(2-methoxy-4-((4-morpholinopiperidin-1-yl)sulfonyl)phenyl)-N4-methyl-7H-pyrrolo[2,3-d]pyrimidine-2,4-diamine] was tested, and the remaining binding at 1 µM [1] was 86%, the remaining binding at 1 µM [2] was 100% and the remaining binding at 1 µM ([3]; KIT-autoinhibited) was 95%. It also gave a remaining binding at 1 µM ([3]; KIT) of 100%, a remaining binding at 1 µM [4] of 48% and a remaining binding at 1 µM [5] of 100%. For the same molecule, the remaining binding at 1 µM [6] was 100%, the remaining binding at 1 µM [7] was 3.4% and the remaining binding at 1 µM [8] was 64%. The remaining binding at 1 µM [9] was 75%, the remaining binding at 1 µM [10] was 100% and the remaining binding at 1 µM [11] was 63%. The remaining binding at 1 µM [12] was 85%, the remaining binding at 1 µM [13] was 79% and the remaining binding at 1 µM [14] was 100%. It also gave a remaining binding at 1 µM [15] of 96%, a remaining binding at 1 µM [16] of 66% and a remaining binding at 1 µM [17] of 100%. The remaining binding at 1 µM [18] was 96%, the remaining binding at 1 µM ([19]; CDK4-cyclinD1) was 74% and the remaining binding at 1 µM ([19]; CDK4-cyclinD3) was 100%. The remaining binding at 1 µM ([19]; CDK4) was 68%, the remaining binding at 1 µM [20] was 100% and the remaining binding at 1 µM [21] was 100%. It also gave a remaining binding at 1 µM [22] of 100%.

In the case of `CNc1nc(Nc2ccc(C(=O)N3CCC(N4CCOCC4)CC3)c3c2OCO3)nc2[nH]cc(Cl)c12` [Compound 75, (7-((5-chloro-4-(methylamino)-7H-pyrrolo[2,3-d]pyrimidin-2-yl)amino)benzo[d][1,3]dioxol-4-yl)(4-morpholinopiperidin-1-yl)methanone], the remaining binding at 1 µM [1] is reported as 92%, the remaining binding at 1 µM [2] is reported as 66% and the remaining binding at 1 µM ([3]; KIT-autoinhibited) is reported as 68%. The remaining binding at 1 µM ([3]; KIT) was 65%, the remaining binding at 1 µM [4] was 23% and the remaining binding at 1 µM [5] was 99%. The remaining binding at 1 µM [6] was 100%, the remaining binding at 1 µM [7] was 1.9% and the remaining binding at 1 µM [8] was 65%. The remaining binding at 1 µM [9] was 91%, the remaining binding at 1 µM [10] was 98% and the remaining binding at 1 µM [11] was 24%. It also gave a remaining binding at 1 µM [12] of 88%, a remaining binding at 1 µM [13] of 98% and a remaining binding at 1 µM [14] of 100%. The remaining binding at 1 µM [15] was 100%, the remaining binding at 1 µM [16] was 45% and the remaining binding at 1 µM [17] was 100%. It also gave a remaining binding at 1 µM [18] of 18%, a remaining binding at 1 µM ([19]; CDK4-cyclinD1) of 81% and a remaining binding at 1 µM ([19]; CDK4-cyclinD3) of 100%. It also gave a remaining binding at 1 µM ([19]; CDK4) of 80%, a remaining binding at 1 µM [20] of 100% and a remaining binding at 1 µM [21] of 100%. For the same molecule, the remaining binding at 1 µM [22] was 100%.

In the case of `CNc1nc(Nc2ccc(P3(=O)CCN(C4CCOCC4)CC3)cc2OC)nc2[nH]cc(Cl)c12` [Compound 77, 4-(4-((5-chloro-4-(methylamino)-7H-pyrrolo[2,3-d]pyrimidin-2-yl)amino)-3-methoxyphenyl)-1-(tetrahydro-2H-pyran-4-yl)-1,4-azaphosphinane 4-oxide], the remaining binding at 1 µM [1] is reported as 79%, the remaining binding at 1 µM [2] is reported as 95% and the remaining binding at 1 µM ([3]; KIT-autoinhibited) is reported as 93%. It also gave a remaining binding at 1 µM ([3]; KIT) of 99%, a remaining binding at 1 µM [4] of 32% and a remaining binding at 1 µM [5] of 100%. For the same molecule, the remaining binding at 1 µM [6] was 100%, the remaining binding at 1 µM [7] was 2% and the remaining binding at 1 µM [8] was 75%. It also gave a remaining binding at 1 µM [9] of 100%, a remaining binding at 1 µM [10] of 62% and a remaining binding at 1 µM [11] of 59%. For the same molecule, the remaining binding at 1 µM [12] was 62%, the remaining binding at 1 µM [13] was 100% and the remaining binding at 1 µM [14] was 97%. For the same molecule, the remaining binding at 1 µM [15] was 100%, the remaining binding at 1 µM [16] was 42% and the remaining binding at 1 µM [17] was 100%. For the same molecule, the remaining binding at 1 µM [18] was 89%, the remaining binding at 1 µM ([19]; CDK4-cyclinD1) was 87% and the remaining binding at 1 µM ([19]; CDK4-cyclinD3) was 100%. It also gave a remaining binding at 1 µM ([19]; CDK4) of 71%, a remaining binding at 1 µM [20] of 100% and a remaining binding at 1 µM [21] of 100%. It also gave a remaining binding at 1 µM [22] of 100%.
